From article PMC9030254, “Target Hopping from Protein Kinases to PXR: Identification of Small-Molecule Protein Kinase Inhibitors as Selective Modulators of Pregnane X Receptor from TüKIC Library” (Cells, 2022)

What was measured:
Assay in all cases: Kinase profiling
Format in all cases: biochemical
CDK6/CycD1 = biological target: T1, CDK6/CycD1 (Homo sapiens, UniProt Q00534)
T1 construct: purchased ProQinase (Freiburg, Germany)
Description: (§1) The analysis was performed by ProQinase (Freiburg, Germany).

CDK6/CycD2 = biological target: T2, CDK6/CycD2 (Homo sapiens, UniProt Q00534)
T2 construct: purchased ProQinase (Freiburg, Germany)
Description: as §1

DYRK1A = biological target: T3, DYRK1A (Homo sapiens, UniProt Q13627)
T3 construct: purchased ProQinase (Freiburg, Germany)
Description: as §1

JNK1 = biological target: T4, JNK1 (Homo sapiens, UniProt P45983)
T4 construct: purchased ProQinase (Freiburg, Germany)
Description: as §1

LIMK2 = biological target: T5, LIMK2 (Homo sapiens, UniProt P53671)
T5 construct: purchased ProQinase (Freiburg, Germany)
Description: as §1

PBK = biological target: T6, PBK (Homo sapiens, UniProt Q96KB5)
T6 construct: purchased ProQinase (Freiburg, Germany)
T6 sequence (Q96KB5 1-322): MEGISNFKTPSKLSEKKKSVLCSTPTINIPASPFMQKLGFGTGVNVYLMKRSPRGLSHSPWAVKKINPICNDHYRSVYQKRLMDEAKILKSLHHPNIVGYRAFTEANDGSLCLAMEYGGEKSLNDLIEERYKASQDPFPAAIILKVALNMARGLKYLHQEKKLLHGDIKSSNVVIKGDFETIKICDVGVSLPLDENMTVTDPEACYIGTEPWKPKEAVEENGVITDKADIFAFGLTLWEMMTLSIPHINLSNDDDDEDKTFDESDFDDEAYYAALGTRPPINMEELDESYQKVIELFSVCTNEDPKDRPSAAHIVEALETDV
Description: as §1

PDK1 = biological target: T7, PDK1 (Homo sapiens, UniProt O15530)
T7 construct: purchased ProQinase (Freiburg, Germany)
T7 sequence (O15530 1-556): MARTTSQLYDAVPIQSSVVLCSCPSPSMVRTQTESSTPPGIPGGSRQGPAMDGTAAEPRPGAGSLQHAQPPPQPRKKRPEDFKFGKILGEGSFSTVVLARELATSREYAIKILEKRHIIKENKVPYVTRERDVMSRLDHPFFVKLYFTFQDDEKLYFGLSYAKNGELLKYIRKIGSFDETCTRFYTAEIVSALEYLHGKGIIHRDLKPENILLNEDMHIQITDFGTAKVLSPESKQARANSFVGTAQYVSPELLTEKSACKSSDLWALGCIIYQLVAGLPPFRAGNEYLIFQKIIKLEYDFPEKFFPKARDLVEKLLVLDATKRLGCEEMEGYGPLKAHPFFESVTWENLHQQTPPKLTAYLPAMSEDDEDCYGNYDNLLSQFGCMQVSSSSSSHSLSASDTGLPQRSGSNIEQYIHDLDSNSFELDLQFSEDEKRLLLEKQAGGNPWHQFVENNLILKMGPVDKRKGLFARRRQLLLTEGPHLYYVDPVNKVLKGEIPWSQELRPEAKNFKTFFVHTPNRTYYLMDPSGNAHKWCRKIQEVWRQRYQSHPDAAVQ
Description: as §1

PIM2 = biological target: T8, PIM2 (Homo sapiens, UniProt Q9P1W9)
T8 construct: purchased ProQinase (Freiburg, Germany)
Description: as §1

RPS6KA5 = biological target: T9, RPS6KA5 (Homo sapiens, UniProt O75582)
T9 construct: purchased ProQinase (Freiburg, Germany)
Description: as §1

TAOK3 = biological target: T10, TAOK3 (Homo sapiens, UniProt Q9H2K8)
T10 construct: purchased ProQinase (Freiburg, Germany)
T10 sequence (Q9H2K8 1-898): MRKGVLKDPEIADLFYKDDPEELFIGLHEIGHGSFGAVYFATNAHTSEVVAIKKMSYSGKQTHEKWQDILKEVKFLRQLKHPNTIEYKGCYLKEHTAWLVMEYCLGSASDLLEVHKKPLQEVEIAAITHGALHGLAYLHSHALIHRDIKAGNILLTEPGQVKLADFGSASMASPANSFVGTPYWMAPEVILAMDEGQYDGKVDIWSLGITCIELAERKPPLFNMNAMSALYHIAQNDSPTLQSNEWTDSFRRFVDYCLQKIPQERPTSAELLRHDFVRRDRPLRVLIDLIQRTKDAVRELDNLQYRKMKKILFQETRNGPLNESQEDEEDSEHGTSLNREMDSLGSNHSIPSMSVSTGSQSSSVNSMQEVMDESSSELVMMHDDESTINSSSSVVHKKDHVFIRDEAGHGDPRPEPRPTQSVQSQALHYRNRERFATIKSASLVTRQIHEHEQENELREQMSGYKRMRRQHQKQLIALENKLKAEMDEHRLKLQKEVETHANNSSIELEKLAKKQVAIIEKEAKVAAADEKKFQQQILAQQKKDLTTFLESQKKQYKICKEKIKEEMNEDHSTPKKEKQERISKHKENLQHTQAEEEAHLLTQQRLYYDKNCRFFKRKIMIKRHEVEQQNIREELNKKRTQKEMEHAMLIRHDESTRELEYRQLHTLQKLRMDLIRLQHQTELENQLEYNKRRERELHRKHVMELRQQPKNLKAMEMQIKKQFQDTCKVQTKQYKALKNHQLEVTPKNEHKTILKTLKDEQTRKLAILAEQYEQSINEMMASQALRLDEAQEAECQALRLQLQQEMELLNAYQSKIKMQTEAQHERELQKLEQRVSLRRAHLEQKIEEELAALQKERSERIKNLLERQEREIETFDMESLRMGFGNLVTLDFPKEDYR
Description: as §1

T2 sequence (Q00534 whole entry): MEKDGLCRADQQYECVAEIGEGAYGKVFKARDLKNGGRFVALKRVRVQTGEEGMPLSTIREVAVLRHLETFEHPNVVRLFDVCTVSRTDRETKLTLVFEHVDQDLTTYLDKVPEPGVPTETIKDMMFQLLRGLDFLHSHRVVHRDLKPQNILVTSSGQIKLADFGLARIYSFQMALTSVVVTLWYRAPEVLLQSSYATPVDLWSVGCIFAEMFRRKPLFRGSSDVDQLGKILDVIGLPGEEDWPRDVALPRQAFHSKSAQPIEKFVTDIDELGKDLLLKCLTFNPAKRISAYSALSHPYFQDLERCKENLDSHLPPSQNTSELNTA
T2 sequence (P30279 whole entry partner): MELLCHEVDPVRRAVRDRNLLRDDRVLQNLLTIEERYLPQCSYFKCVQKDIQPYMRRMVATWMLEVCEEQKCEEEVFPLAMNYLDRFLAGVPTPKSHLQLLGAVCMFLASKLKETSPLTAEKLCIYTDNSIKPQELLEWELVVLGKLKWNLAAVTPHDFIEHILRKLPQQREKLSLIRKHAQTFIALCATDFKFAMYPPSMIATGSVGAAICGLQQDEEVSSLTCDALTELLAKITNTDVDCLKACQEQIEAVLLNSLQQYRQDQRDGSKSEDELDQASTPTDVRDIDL
T1 sequence (Q00534 whole entry): as the sequence (Q00534 whole entry) above
T1 sequence (P24385 whole entry partner): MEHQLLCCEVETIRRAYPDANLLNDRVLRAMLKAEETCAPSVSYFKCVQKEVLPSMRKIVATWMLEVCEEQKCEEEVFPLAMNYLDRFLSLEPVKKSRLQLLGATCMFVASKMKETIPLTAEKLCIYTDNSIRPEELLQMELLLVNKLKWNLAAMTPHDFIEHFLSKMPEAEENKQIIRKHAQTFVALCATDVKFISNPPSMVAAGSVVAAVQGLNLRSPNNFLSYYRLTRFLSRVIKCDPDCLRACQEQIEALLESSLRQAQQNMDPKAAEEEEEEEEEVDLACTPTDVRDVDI
T4 sequence (P45983 whole entry): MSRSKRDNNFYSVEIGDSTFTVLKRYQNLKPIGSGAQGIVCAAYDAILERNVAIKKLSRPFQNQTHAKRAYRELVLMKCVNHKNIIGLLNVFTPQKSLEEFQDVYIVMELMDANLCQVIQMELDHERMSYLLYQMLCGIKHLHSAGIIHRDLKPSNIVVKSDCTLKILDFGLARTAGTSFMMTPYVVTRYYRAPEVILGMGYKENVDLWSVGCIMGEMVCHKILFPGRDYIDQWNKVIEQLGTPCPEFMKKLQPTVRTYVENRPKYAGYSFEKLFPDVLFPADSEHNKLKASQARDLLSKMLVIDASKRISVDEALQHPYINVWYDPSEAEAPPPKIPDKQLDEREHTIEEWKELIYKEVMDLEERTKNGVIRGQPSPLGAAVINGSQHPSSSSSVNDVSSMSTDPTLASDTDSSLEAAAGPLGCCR
T9 sequence (O75582 whole entry): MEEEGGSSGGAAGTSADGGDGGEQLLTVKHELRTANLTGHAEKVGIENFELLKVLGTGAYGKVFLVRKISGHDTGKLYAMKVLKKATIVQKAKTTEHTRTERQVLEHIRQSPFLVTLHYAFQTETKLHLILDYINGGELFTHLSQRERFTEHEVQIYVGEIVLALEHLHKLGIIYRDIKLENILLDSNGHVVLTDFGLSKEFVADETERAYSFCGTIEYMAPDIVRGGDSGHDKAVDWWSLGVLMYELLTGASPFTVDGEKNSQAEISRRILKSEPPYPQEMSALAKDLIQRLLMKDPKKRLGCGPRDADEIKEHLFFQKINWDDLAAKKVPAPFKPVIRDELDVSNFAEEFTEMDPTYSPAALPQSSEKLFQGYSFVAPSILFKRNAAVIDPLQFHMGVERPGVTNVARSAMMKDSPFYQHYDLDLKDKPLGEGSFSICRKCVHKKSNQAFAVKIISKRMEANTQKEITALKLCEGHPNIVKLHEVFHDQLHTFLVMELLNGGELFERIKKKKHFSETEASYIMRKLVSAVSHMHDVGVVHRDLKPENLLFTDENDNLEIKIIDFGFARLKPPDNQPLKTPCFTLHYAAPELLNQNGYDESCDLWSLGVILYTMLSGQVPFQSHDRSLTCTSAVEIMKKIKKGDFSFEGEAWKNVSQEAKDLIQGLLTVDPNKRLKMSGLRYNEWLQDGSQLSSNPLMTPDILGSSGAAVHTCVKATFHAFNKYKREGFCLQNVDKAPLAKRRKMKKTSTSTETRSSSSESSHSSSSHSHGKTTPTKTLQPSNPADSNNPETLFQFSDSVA
T5 sequence (P53671 whole entry): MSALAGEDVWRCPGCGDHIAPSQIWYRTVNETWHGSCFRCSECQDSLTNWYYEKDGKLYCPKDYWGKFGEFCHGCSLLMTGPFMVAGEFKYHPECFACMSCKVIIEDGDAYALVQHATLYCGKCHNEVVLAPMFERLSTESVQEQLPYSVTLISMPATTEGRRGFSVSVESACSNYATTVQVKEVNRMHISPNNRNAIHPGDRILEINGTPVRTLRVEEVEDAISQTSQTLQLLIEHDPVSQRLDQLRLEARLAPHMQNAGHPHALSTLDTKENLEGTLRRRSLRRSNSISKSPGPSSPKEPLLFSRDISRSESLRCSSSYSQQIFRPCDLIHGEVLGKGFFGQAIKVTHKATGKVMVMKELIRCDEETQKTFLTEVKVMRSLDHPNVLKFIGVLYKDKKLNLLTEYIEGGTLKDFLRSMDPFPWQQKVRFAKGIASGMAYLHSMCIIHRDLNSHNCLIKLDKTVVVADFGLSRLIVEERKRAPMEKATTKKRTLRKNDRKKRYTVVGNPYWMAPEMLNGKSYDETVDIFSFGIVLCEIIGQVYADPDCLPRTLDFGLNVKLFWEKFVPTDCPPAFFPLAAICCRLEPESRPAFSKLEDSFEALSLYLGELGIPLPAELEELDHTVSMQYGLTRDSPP
T8 sequence (Q9P1W9 whole entry): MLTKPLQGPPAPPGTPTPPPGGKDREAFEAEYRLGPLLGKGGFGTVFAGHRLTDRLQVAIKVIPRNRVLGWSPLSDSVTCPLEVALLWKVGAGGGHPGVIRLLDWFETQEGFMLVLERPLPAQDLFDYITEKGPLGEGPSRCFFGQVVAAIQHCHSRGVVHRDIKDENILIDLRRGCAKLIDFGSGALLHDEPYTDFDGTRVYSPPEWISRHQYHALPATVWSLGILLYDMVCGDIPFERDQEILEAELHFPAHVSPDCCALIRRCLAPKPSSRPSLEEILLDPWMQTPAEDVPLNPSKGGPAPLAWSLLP

SMILES	Residual activity (CDK6/CycD1; 1.0E-05 M)	Residual activity (CDK6/CycD1; 1.0E-06 M)	Residual activity (CDK6/CycD2; 1.0E-05 M)	Residual activity (CDK6/CycD2; 1.0E-06 M)	Residual activity (DYRK1A; 1.0E-05 M)	Residual activity (DYRK1A; 1.0E-06 M)	Residual activity (JNK1; 1.0E-05 M)	Residual activity (JNK1; 1.0E-06 M)	Residual activity (LIMK2; 1.0E-05 M)	Residual activity (LIMK2; 1.0E-06 M)	Residual activity (PBK; 1.0E-05 M)	Residual activity (PBK; 1.0E-06 M)	Residual activity (PDK1; 1.0E-05 M)	Residual activity (PDK1; 1.0E-06 M)	Residual activity (PIM2; 1.0E-05 M)	Residual activity (PIM2; 1.0E-06 M)	Residual activity (RPS6KA5; 1.0E-05 M)	Residual activity (RPS6KA5; 1.0E-06 M)	Residual activity (TAOK3; 1.0E-05 M)	Residual activity (TAOK3; 1.0E-06 M)
O=C(Nc1ccc(F)c(Nc2ccc3c(c2)CCCCC3=O)c1)c1cccc(F)c1 [Compound 109]	90 % of control	84 % of control	94 % of control	105 % of control	92 % of control	92 % of control	81 % of control	90 % of control	93 % of control	98 % of control	106 % of control	95 % of control	80 % of control	98 % of control	86 % of control	100 % of control	93 % of control	96 % of control	91 % of control	99 % of control
O=C(Cc1ccccc1)Nc1ccc(F)c(Nc2ccc3c(c2)CCCCC3=O)c1 [Compound 100]	89 % of control	93 % of control	97 % of control	97 % of control	98 % of control	92 % of control	76 % of control	100 % of control	82 % of control	95 % of control	93 % of control	128 % of control	57 % of control	102 % of control	92 % of control	109 % of control	97 % of control	104 % of control	98 % of control	105 % of control
